Assay results taken from patent US11859203B2, “Cell culture methods” (UCB BIOPHARMA SRL, priority 2017, dated 2024).

How the values were obtained:
Type in all cases: cell-based, Chinese Hamster
cell line 1 = test: Reproducibility in 2 L bioreactor, cell line 1, average of data sets 1 and 2 (Example 4); conditions: for cell growth (VCC) compared to control: from day 9, 2 L bioreactor, data sets 1 and 2
Protocol: (§1) The ability of cysteine/cystine derivatives to reduce color and acidic species of a recombinant protein preparation produced in cell culture was evaluated in a bioreactor for two cell lines. This model is more representative of the large-scale production than the shake flask due to the geometry and additional control. CHO-DG44 cells from cell line 1 and 2 were inoculated in 1300 mL of basal media at a seeding density of 0.35×10^6 cells/mL in 2 L stirred bioreactor (Sartorius). The cells were cultivated during 14 days in fed-batch mode. The cell cultures were agitated at 280 rpm and the DO was maintained at 40%. The cell culture was maintained at pH 7.0±0.2 with an automatic CO2 sparging regulation. Cells were cultured in a fed-batch mode with bolus addition of Feed every day of culture. The basal media contained 0.04 mmol/L of cysteine+0.38 mmol/L of cystine. The Feed contained 153.3 mmol/L of cystine. Over the entire 14-day production phase, the total volume of Feed added corresponded to 5.7% (w/w) of the culture start volume for cell line 1 and to 3.1% (w/w) of the culture start volume for cell line 2.
(§2) The cysteine present in the Feed was replaced by different cysteine- and cystine derivatives at different percentages as presented in Table 2. A condition with only 50% of cysteine was added to test whether the improvements observed were due to the cysteine derivative or to the reduction of cysteine only. Osmolality was daily monitored using an osmometer from Advanced instrument. Off line pH, dissolved O2 and dissolved CO2 were daily monitored using a Nova Biomedical Phox (Nova biomedical). Metabolites concentrations were daily determined using a CedexBioHT system (Roche). Viable cell concentration and cell viability were measured daily using a ViCell automated cell counter (Beckman Coulter). The cell culture fluid was collected daily by centrifuging 1 mL of cell culture fluid for determination of antibody titer by HPLC prot A (waters) or using protein-L Octet measurement (Pall). At the end of the 14 days of culture, the cell culture fluid was harvested by centrifugation. The supernatant was then purified using a protein-A or L affinity chromatography (GE). The protein-A or L eluates were used for the molecular weight determination using UPLC size exclusion (Waters) and for the charge variants determination using isocapillary focusing (PROTEINSIMPLE iCE3). Another part of the protein-A eluates (only from cell line 1) was concentrated to 40 mg/mL using Amicon centricon centrifugal filter devices (Millipore). Color intensity of the concentrated antibody composition was measured in the concentrated protein A eluates using a spectrophotometer by transmission (UltrascanPro) and compared to the CIE (commission internationale de l'éclairage) scale. The numerical results were normalized to the concentration of 40 mg/mL.
The reproducibility of the results was evaluated in bioreactor with cell line 1. The experiments of Example 3 were repeated with an additional control and a bioreactor with 50% S-sulfocysteine 50% Cysteine Feed. The data from the two experiments were analyzed to confirm the effect previously observed with cysteine/cystine derivatives.

[1] = test system: CHO-DG44 cells from cell line 2; test: Fed-batch 2 L bioreactor culture with cysteine/cystine derivatives, cell line 2 (Example 3); conditions: 50% replacement; cell line 2, 2 L bioreactor
Protocol: as §1, §2

[2] = test system: CHO-DG44 cells producing a full-length antibody, mAb1; test: Fed-batch shake flask culture with cysteine in Feed replaced by cysteine/cystine derivatives (Example 1)
Protocol: The ability of cysteine/cystine derivatives to reduce color and acidic species of an antibody preparation produced recombinantly by host cells grown in cell culture was evaluated. For this experiment, a scale-down model in shake flask was used. CHO-DG44 cells producing a full-length antibody, mAb1, were inoculated in 100 mL of basal media at a seeding density of 0.35×10^6 cells/mL mAb1 comprises a light chain having the sequence as defined in SEQ ID NO: 9 and a heavy chain having the sequence as defined in SEQ ID NO: 10.
The shake flask vessels were 250 mL shake flasks (corning) disposed in an agitated incubator (Infors) protected from light. The cells were cultivated for 14 days at 36.8° C. with 80% humidity. The cell cultures were agitated at 140 rpm at the beginning of the process. The agitation was increased during the process progressively to reach 250 rpm to maintain a DO % at 40% in the shake flask, as is it done in a 2 L bioreactor process. The cell culture was maintained at pH 7.0±0.2 by decreasing the CO2 in the incubator from 5% before the process to 2% during the process. Cells were cultured in a fed-batch mode with bolus addition of Feed every day of culture. The basal media contained 0.04 mmol/L of cysteine+0.38 mmol/L of cystine. The Feed contained 153.3 mmol/L of cystine. Over the entire 14-day production phase, the total volume of Feed added corresponded to 4.47% (v/v) of the culture start volume.
The cysteine present in the Feed was replaced by different cysteine and cystine derivatives at different percentages as presented in Table 1. Osmolality was daily monitored using an osmometer from Advanced Instruments. Off line pH, dissolved O2 and dissolved CO2 were daily monitored using a model BioProfile pHOx® blood gas analyser (Nova Biomedical Corporation, Waltham, Mass.). Metabolites concentrations were daily determined using a CedexBioHT system (Roche). Viable cell concentration and cell viability were measured daily using a ViCell automated cell counter (Beckman Coulter). The cell culture fluid was collected daily by centrifuging 1 mL of cell culture fluid for determination of antibody titer using protein A HPLC (Waters). At the end of the 14 days of culture, the cell culture fluid was harvested by centrifugation. The supernatant was then purified using a protein-A affinity chromatography (MabSelect Sure, GE). […] The relative percentage of main, acidic (APG for Acidic Peak Group) and basic (BPG for Basic Peak Group) isoforms of the purified mAb was determined by Imaged Capillary Electrophoresis (PROTEINSIMPLE iCE3). […]
Color intensity of the concentrated antibody composition was measured in the concentrated protein A eluates using a spectrophotometer by transmission (UltrascanPro) and compared to the CIE (commission internationale de l'éclairage) scale. […]

[3] = test system: CHO-DG44 cells from cell line 1; test: Fed-batch Ambr15 mini bioreactor culture, different replacement levels, cell line 1 (Example 5); conditions: for cell growth: 90% of cysteine/cystine in Feed replaced, Ambr15
Protocol: We tested different concentrations of cysteine/cystine derivatives on the improvement on the APG level of a recombinant protein preparation produced in cell culture cultivated in mini bioreactors. CHO-DG44 cells from cell line 1 were inoculated in 12 mL basal media at a seeding density of 0.35×10^6 cells/mL in Ambr15 bioreactors (Sartorius). The cells were cultivated in fed-batch mode during 14 days. The DO was maintained at 40% and the pH was maintained 7.0±0.2 with an automatic CO2 sparging regulation. Viable cell concentration and cell viability were measured daily using a ViCell automated cell counter (Beckman Coulter). Cells were cultured in a fed-batch mode with a daily bolus addition of Feed. The basal media contained 0.04 mmol/L cysteine+0.38 mmol/L cystine. The Feed contained 153.3 mmol/L of cystine. Over the entire 14-day production phase, the total volume of added Feed corresponded to 4.7% (v/v) of the culture start volume.
Different percentages of cysteine present in the Feed was replaced by different cysteine- and cystine analogs. Table 4 provides an overview of different percentages tested and their equivalence in molar ratio relative to cysteine or cystine. E.g. for N-Acetyl-L-cysteine 10% means that 10% molar amount of cysteine equivalent has been replaced by 10% molar amount of N-Acetyl-L-cysteine; for N,N′-Diacetyl-L-cystine, 10% means that 10 molar amount of cystine equivalent has been replaced with 10% molar amount of N,N′-Diacetyl-L-cystine. At the end of the 14 days of culture, the cell culture fluid was harvested by centrifugation. The supernatant was then purified using a protein-A affinity chromatography (GE). The protein-A eluates were used for the charge variants determination using isocapillary focusing (PROTEINSIMPLE iCE3).

[4] = test system: CHO-DG44 cells from cell line 1; test: Fed-batch 2 L bioreactor culture with cysteine/cystine derivatives, cell line 1 (Example 3); conditions: 50% replacement, cell line 1, 2 L bioreactor; for decrease of the b value level (color intensity) compared to control: 40 mg/mL
Protocol: as §1, §2

[5] = 50% replacement, compared to 50% cysteine feed
[6] = 50% replacement, data sets 1 and 2 average

COC(=O)[C@H](CSSC[C@H](NC(C)=O)C(=O)OC)NC(C)=O [N,N′-diacetyl-L-cystine dimethylester, N,N′-diacetyl-L-cystine-dimethylester]
specific productivity (cell line 1; [5]): increase of the specific productivity
average decrease of b value level (color intensity) compared to control (cell line 1; [6]): 30%
decrease in antibody titer compared to the controls average (cell line 1; [6]): less than 5%
titer loss due to cysteine reduction in feed compensated (cell line 1; compared to 50% cysteine feed): 5%
decrease of acidic species level compared to control [1]: 13%
main species level [1]: increase of main species
decrease of b*value (color intensity) of the concentrated protein-A eluate compared to control ([2]; 50% replacement, day 14, eluate normalized to 40 mg/mL): 21.2%
decrease on acidic variants level compared to control ([2]; 50% replacement, day 14, iCE3): 24.8%
acidic species level with respect to the control ([3]; 10-90% replacement): decrease of the acidic species level
cell growth [3]: Inhibition of the growth
decrease of acidic species level compared to control [4]: 15%
decrease of antibody titer compared to control [4]: less than 5%
main species level [4]: increase of main species
decrease of the b value level (color intensity) compared to control [4]: 25%

CC(=O)N[C@@H](CSSC[C@H](NC(C)=O)C(=O)O)C(=O)O [N,N′-diacetyl-L-cystine, N,N′-Diacetyl-L-cystine]
specific productivity (cell line 1; [5]): did not impact the productivity
average decrease of b value level (color intensity) compared to control (cell line 1; [6]): 14%
decrease in antibody titer compared to the controls average (cell line 1; [6]): 10%
main species level (cell line 1; [6]): increase of main species
cell growth (VCC) compared to control (cell line 1; 50% replacement): higher VCCs than the control conditions
decrease of acidic species level compared to control [1]: 8%
main species level [1]: increase of main species
main charge species level with respect to the control ([3]; 10-90% replacement): positive difference with respect to the control
cell growth [3]: Inhibition of the growth
maximum reduction of acidic species level with respect to the control ([3]; with the increase of the percentage of replacement (10-90%)): 27.5%
decrease of acidic species level compared to control [4]: 5%
main species level [4]: increase of main species
decrease of the b value level (color intensity) compared to control [4]: 2.5%

N[C@@H](CSS(=O)(=O)O)C(=O)O [S-sulfocysteine, S-Sulfocysteine, reference compound]
specific productivity (cell line 1; [5]): not to a specific impact
average decrease of b value level (color intensity) compared to control (cell line 1; [6]): 5%
decrease in antibody titer compared to the controls average (cell line 1; [6]): 25%
cell growth (VCC) compared to control (cell line 1; 50% replacement): higher cell death than the control
maximum viable cell concentration ([2]; 50% of cysteine in Feed replaced): 2×10^6 cells/mL
cell growth (viable cell concentration) compared to control ([2]; 100% of cysteine in Feed replaced by derivative, shake flask, 14 days): cells rapidly died on day 7
